Test results taken from ChEMBL document CHEMBL1201862, “PubChem BioAssay data set” (2004).
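A five-concentration, 48-hour dose response in 96-well plates underlies each endpoint, interpolated linearly between surrounding concentrations. Abbreviation: GI50, concentration required for 50% inhibition of growth.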 Activity calls are given as the source filed them. No stated cut-off is given here; in the data, active = GI50 up to about 1.1 µM and inactive = higher.

Legend:
Experiment in all cases: NCI anticancer screen, dose series, 48 h
ACHN = test system: ACHN
NCI/ADR-RES = test system: NCI/ADR-RES
MOLT-4 = test system: MOLT-4
OVCAR-4 = test system: OVCAR-4
NCI-H226 = test system: NCI-H226
LOX IMVI = test system: LOX IMVI
SF-268 = test system: SF-268
HOP-62 = test system: HOP-62
A549 = test system: A549
HCC 2998 = test system: HCC 2998
SNB-75 = test system: SNB-75
SW-620 = test system: SW-620
OVCAR-5 = test system: OVCAR-5
HL-60 = test system: HL-60
SF-539 = test system: SF-539
Malme-3M = test system: Malme-3M
MDA-N = test system: MDA-N
IGROV-1 = test system: IGROV-1
M14 = test system: M14
SN12C = test system: SN12C
MDA-MB-435 = test system: MDA-MB-435
SK-OV-3 = test system: SK-OV-3
UACC-257 = test system: UACC-257
COLO 205 = test system: COLO 205
UACC-62 = test system: UACC-62
SF-295 = test system: SF-295
A498 = test system: A498
CCRF-CEM = test system: CCRF-CEM
KM12 = test system: KM12
SK-MEL-2 = test system: SK-MEL-2
SNB-19 = test system: SNB-19
EKVX = test system: EKVX
CAKI-1 = test system: CAKI-1
Hs-578T = test system: Hs-578T
OVCAR-3 = test system: OVCAR-3
BT-549 = test system: BT-549
HCT-15 = test system: HCT-15
SK-MEL-28 = test system: SK-MEL-28
OVCAR-8 = test system: OVCAR-8
HT-29 = test system: HT-29
SR = test system: SR
UO-31 = test system: UO-31
MDA-MB-231 = test system: MDA-MB-231
HCT-116 = test system: HCT-116
SK-MEL-5 = test system: SK-MEL-5
DU-145 = test system: DU-145
K562 = test system: K562
NCI-H460 = test system: NCI-H460
MCF7 = test system: MCF7
PC-3 = test system: PC-3
786-0 = test system: 786-0
U-251 = test system: U-251
NCI-H23 = test system: NCI-H23
NCI-H522 = test system: NCI-H522
HOP-92 = test system: HOP-92
RPMI-8226 = test system: RPMI-8226
TK-10 = test system: TK-10
RXF 393 = test system: RXF 393
T47D = test system: T47D

Compound: Cc1nc2c(Br)cc(Br)cc2c(=O)n1-c1ccccc1N
- GI50 (ACHN): 39.7 µM (inactive)
- GI50 (NCI/ADR-RES): 45.9 µM (inactive)
- GI50 (MOLT-4): 21.9 µM (inactive)
- GI50 (OVCAR-4): > 100 µM (inactive)
- GI50 (NCI-H226): 30.3 µM (inactive)
- GI50 (LOX IMVI): 27.5 µM (inactive)
- GI50 (SF-268): 50.1 µM (inactive)
- GI50 (HOP-62): 70.5 µM (inactive)
- GI50 (A549): 33.5 µM (inactive)
- GI50 (HCC 2998): 35.6 µM (inactive)
- GI50 (SNB-75): 22.9 µM (inactive)
- GI50 (SW-620): 44.6 µM (inactive)
- GI50 (OVCAR-5): 28.8 µM (inactive)
- GI50 (HL-60): 19.9 µM (inactive)
- GI50 (SF-539): 35.2 µM (inactive)
- GI50 (Malme-3M): 28.4 µM (inactive)
- GI50 (MDA-N): 50.9 µM (inactive)
- GI50 (IGROV-1): 38.3 µM (inactive)
- GI50 (M14): 35.4 µM (inactive)
- GI50 (SN12C): 29.9 µM (inactive)
- GI50 (MDA-MB-435): 39.4 µM (inactive)
- GI50 (SK-OV-3): 33 µM (inactive)
- GI50 (UACC-257): 31 µM (inactive)
- GI50 (COLO 205): 20.7 µM (inactive)
- GI50 (UACC-62): 30.1 µM (inactive)
- GI50 (SF-295): 53 µM (inactive)
- GI50 (A498): 36.9 µM (inactive)
- GI50 (CCRF-CEM): 30.1 µM (inactive)
- GI50 (KM12): 51.5 µM (inactive)
- GI50 (SK-MEL-2): 19.2 µM (inactive)
- GI50 (SNB-19): 48.2 µM (inactive)
- GI50 (EKVX): 41 µM (inactive)
- GI50 (CAKI-1): 28.4 µM (inactive)
- GI50 (Hs-578T): 25.9 µM (inactive)
- GI50 (OVCAR-3): 63.5 µM (inactive)
- GI50 (BT-549): 27.5 µM (inactive)
- GI50 (HCT-15): 35.8 µM
- GI50 (SK-MEL-28): 44.4 µM (inactive)
- GI50 (OVCAR-8): 62.5 µM (inactive)
- GI50 (HT-29): 23.9 µM (inactive)
- GI50 (SR): 37 µM (inactive)
- GI50 (UO-31): 20.5 µM (inactive)
- GI50 (MDA-MB-231): 47.4 µM (inactive)
- GI50 (HCT-116): 23.4 µM (inactive)
- GI50 (SK-MEL-5): 18.3 µM (inactive)
- GI50 (DU-145): 56.6 µM (inactive)
- GI50 (K562): 29.8 µM (inactive)
- GI50 (NCI-H460): 31.8 µM (inactive)
- GI50 (MCF7): 38.9 µM (inactive)
- GI50 (PC-3): 26.8 µM (inactive)
- GI50 (786-0): 43.8 µM (inactive)

Compound: O=C1/C(=C/c2cccc(F)c2)CCCc2ccccc21
- GI50 (ACHN): 19.1 µM (inactive)
- GI50 (U-251): 16.2 µM (inactive)
- GI50 (NCI/ADR-RES): 16.5 µM (inactive)
- GI50 (MOLT-4): 17.7 µM (inactive)
- GI50 (OVCAR-4): 16.7 µM (inactive)
- GI50 (NCI-H226): 14.6 µM (inactive)
- GI50 (LOX IMVI): 16.5 µM (inactive)
- GI50 (SF-268): 12.9 µM (inactive)
- GI50 (HOP-62): 14.3 µM (inactive)
- GI50 (A549): 17.7 µM (inactive)
- GI50 (HCC 2998): 14.7 µM (inactive)
- GI50 (NCI-H23): 20.4 µM (inactive)
- GI50 (SNB-75): 17.3 µM (inactive)
- GI50 (SW-620): 16.9 µM (inactive)
- GI50 (OVCAR-5): 15.1 µM (inactive)
- GI50 (HL-60): 21.5 µM (inactive)
- GI50 (SF-539): 17.4 µM (inactive)
- GI50 (Malme-3M): 11.6 µM (inactive)
- GI50 (NCI-H522): 12.9 µM (inactive)
- GI50 (IGROV-1): 12.2 µM (inactive)
- GI50 (M14): 13.9 µM (inactive)
- GI50 (SN12C): 17.9 µM (inactive)
- GI50 (MDA-MB-435): 16.2 µM (inactive)
- GI50 (SK-OV-3): 27.2 µM (inactive)
- GI50 (UACC-257): 16.9 µM (inactive)
- GI50 (COLO 205): 20.3 µM (inactive)
- GI50 (UACC-62): 15.3 µM (inactive)
- GI50 (SF-295): 16.1 µM (inactive)
- GI50 (CCRF-CEM): 15.5 µM (inactive)
- GI50 (KM12): 12.1 µM (inactive)
- GI50 (HOP-92): 15.8 µM (inactive)
- GI50 (SK-MEL-2): 16.2 µM (inactive)
- GI50 (SNB-19): 16 µM (inactive)
- GI50 (RPMI-8226): 14.9 µM (inactive)
- GI50 (EKVX): 15 µM (inactive)
- GI50 (CAKI-1): 17.7 µM (inactive)
- GI50 (Hs-578T): 13.2 µM (inactive)
- GI50 (OVCAR-3): 15.3 µM (inactive)
- GI50 (BT-549): 17.6 µM (inactive)
- GI50 (HCT-15): 15.9 µM
- GI50 (SK-MEL-28): 16.6 µM (inactive)
- GI50 (TK-10): 15.7 µM (inactive)
- GI50 (OVCAR-8): 15.8 µM (inactive)
- GI50 (HT-29): 13.2 µM (inactive)
- GI50 (SR): 14.7 µM (inactive)
- GI50 (UO-31): 16.3 µM (inactive)
- GI50 (MDA-MB-231): 18.3 µM (inactive)
- GI50 (HCT-116): 15.6 µM (inactive)
- GI50 (DU-145): 16.9 µM (inactive)
- GI50 (K562): 15.1 µM (inactive)
- GI50 (NCI-H460): 17.4 µM (inactive)
- GI50 (MCF7): 14.6 µM (inactive)
- GI50 (PC-3): 15.7 µM (inactive)
- GI50 (786-0): 17.2 µM (inactive)

Compound: N#CC(C/C=C/c1ccccc1)NNC(=O)c1c(Cl)c(Cl)c(Cl)c(Cl)c1-c1nc2cc(C(=O)c3ccccc3)ccc2[nH]1 (configuration not stated)
- GI50 (ACHN): 25.9 µM (inactive)
- GI50 (U-251): 12.5 µM (inactive)
- GI50 (NCI/ADR-RES): 12.9 µM (inactive)
- GI50 (MOLT-4): 13.4 µM (inactive)
- GI50 (OVCAR-4): 14 µM (inactive)
- GI50 (NCI-H226): 17.7 µM (inactive)
- GI50 (LOX IMVI): 13.5 µM (inactive)
- GI50 (HOP-62): 6.14 µM (inactive)
- GI50 (A549): 18.1 µM (inactive)
- GI50 (NCI-H23): 17.9 µM (inactive)
- GI50 (SNB-75): 17.4 µM (inactive)
- GI50 (RXF 393): 9.53 µM (inactive)
- GI50 (SW-620): 22.8 µM (inactive)
- GI50 (OVCAR-5): 28.9 µM (inactive)
- GI50 (HL-60): 7.57 µM (inactive)
- GI50 (SF-539): 9.86 µM (inactive)
- GI50 (MDA-N): 3.24 µM (inactive)
- GI50 (IGROV-1): 18.2 µM (inactive)
- GI50 (M14): 14.9 µM (inactive)
- GI50 (SN12C): 14.8 µM (inactive)
- GI50 (MDA-MB-435): 4.11 µM (inactive)
- GI50 (SK-OV-3): 16.9 µM (inactive)
- GI50 (UACC-257): 25.5 µM (inactive)
- GI50 (COLO 205): 15 µM (inactive)
- GI50 (SF-295): 3.92 µM (inactive)
- GI50 (A498): 9.23 µM (inactive)
- GI50 (CCRF-CEM): 5.79 µM (inactive)
- GI50 (KM12): 23.4 µM (inactive)
- GI50 (HOP-92): 16.2 µM (inactive)
- GI50 (T47D): 12 µM (inactive)
- GI50 (SK-MEL-2): 17.5 µM (inactive)
- GI50 (SNB-19): 14.8 µM (inactive)
- GI50 (RPMI-8226): 16.3 µM (inactive)
- GI50 (EKVX): 15.1 µM (inactive)
- GI50 (CAKI-1): 31.4 µM (inactive)
- GI50 (OVCAR-3): 7.53 µM (inactive)
- GI50 (BT-549): 20.7 µM (inactive)
- GI50 (HCT-15): 11.6 µM
- GI50 (SK-MEL-28): 16.3 µM (inactive)
- GI50 (TK-10): 22.8 µM (inactive)
- GI50 (OVCAR-8): 16.7 µM (inactive)
- GI50 (HT-29): 16.1 µM (inactive)
- GI50 (SR): 6.58 µM (inactive)
- GI50 (UO-31): 21.5 µM (inactive)
- GI50 (MDA-MB-231): 16.1 µM (inactive)
- GI50 (HCT-116): 20 µM (inactive)
- GI50 (SK-MEL-5): 10.2 µM (inactive)
- GI50 (DU-145): 18.5 µM (inactive)
- GI50 (K562): 6.34 µM (inactive)
- GI50 (MCF7): 7.94 µM (inactive)
- GI50 (PC-3): 10.9 µM (inactive)
- GI50 (786-0): 16.4 µM (inactive)
